Assay results taken from patent US20250223306A1, “TEAD INHIBITORS AND METHODS OF USE” (Sporos BioDiscovery, Inc., priority 2022, published 2025).
pEC50, pIC50: −log10 of the molar value.

Assays:
NCI-H226 cells = assay: Proliferation and cell viability, CellTiter-Glo 2.0 (CTG) assay; format: cell-based; conditions: for pIC50: H226-responder cell line, 144 hrs; for pEC50: NCI-H226, H226-responder cell line (Table 5)
Procedure: Cell proliferation of a TEAD dependent NF2-null mesothelioma cell line, NCI-H226, and a TEAD-non-dependent mesothelioma cell line, NCI-H28 was assayed using two different protocols: • a) CellTiter-Glo 2.0 (Promega #G9243). The effect of the TEAD inhibitors disclosed herein on cell proliferation was determined in TEAD1-genetically dependent cell line NCI-H226 (responder cell line) and TEAD-independent cell lines (NCI-H23, HEK293T), as non-responder, negative control. Cells were seeded in 96-well plates (Thermo Scientific #167008) in growth media (RPMI-1640, Gibco #61870-010) for NCI-H226 and NCI-H23 or DMEM (Gibco #31966-021, HEK293T) with 10% Heat Inactivated Fetal Bovine Serum (Gibco 10500-064) at 800 (NCI-H226 and HEK-293T) or 2000 (NCI-H23) cells per well at 37° C., 5% CO2, humidified incubator; 24 hours later, fresh growth media containing test compound or DMSO vehicle was added and incubated with the cells for 144 hrs. TEAD inhibitor stocks were made at a 1000× fold excess in DMSO, and a dose response test compound dose range of 10,000 to 0.1 nM was used. Each treatment was carried out in triplicate. After 144 hrs of treatment, relative cell viability numbers were determined using the CellTiter-Glo 2.0 assay following the manufacturer's instructions. Test plates and CellTiter-Glo 2.0 reagent were allowed to equilibrate to room temperature. CellTiter-Glo 2.0 reagent was added at 1:1 reagent to media ratio to the 96-well cell plates, plates were placed on a plate shaker for 2 minutes and then incubated at room temperature for a further 10 minutes to allow complete cell lysis to occur. The mix was then transferred to white, 96-well luminometer assay plates (Greiner Bio One #655075). Luminescence was quantified using a CLARIOStar Plus multi-mode plate reader (BMG Labtech) in luminescence detection mode with the recommended settings (ultra-Glo pre-set: emission 545-50 nm with autofocus and enhanced dynamic range on). Relative cell density was expressed as a function of inhibitor concentration, with respect to DMSO-only control wells. Data where plotted using GraphPad Prism and IC50 values for the biological effect were calculated using the EC50 non-linear fit function using a sigmoidal, 4-parameter logistic, least squares fit with no constraints. • b) Cell Titer One (Promega, #G3582). The effect of the TEAD inhibitors disclosed herein on cell proliferation was also determined using the Promega Substrate Cell Titer Aqueous One Solution Reagent. The TEAD inhibitors were evaluated for the effects on cell proliferation responder (H226) and non-responder negative control cancer cell lines (CAMA1, H28), as well as non-transformed normal human cells (HUVEC, NHDF). Dissociated cells were resuspend in media (depending on cell line, either in DMEM, RPMI, or EMEM all with 10% FBS, with gentamicin as an antibiotic). Cells were seeded at 100 μL/well at 750 cells per well in 96-well plates and allowed to settle and attach. After an incubation of 24 hrs (37° C., 5% CO2, humidified incubator), 100 μL of test compound-containing media was added. A dilution series of 2000× concentrated stock of test compounds was prepared in DMSO, for final concentrations from 0.1 to 10,000 nM. After addition of test compound-containing media, cells were incubated for 6 days at 37° C., 5% CO2, humidified incubators). To measure cell density, 20 μL of Promega Substrate Cell Titer 96 Aqueous One Solution Reagent (Promega, #G3582) to each well was added according to the manufacturer's instructions. Plates were incubated at 37° C. for usually 3-8 hrs, to reach in the control cells (without compound) an OD of 1.5 at 490 nm. The OD was measured using Vmax [Molecular Devices] spectrophotometer plate reader. Media only-wells were used as background controls and cell densities normalized to DMSO vehicle control. ECs were taken as the concentration achieving 50% of maximal growth inhibition.

TEAD3 = TEAD3 (Homo sapiens, UniProt Q99594); assay: TEAD thermal shift assay (TSA); format: binding
TEAD3, sequence (Q99594 whole entry): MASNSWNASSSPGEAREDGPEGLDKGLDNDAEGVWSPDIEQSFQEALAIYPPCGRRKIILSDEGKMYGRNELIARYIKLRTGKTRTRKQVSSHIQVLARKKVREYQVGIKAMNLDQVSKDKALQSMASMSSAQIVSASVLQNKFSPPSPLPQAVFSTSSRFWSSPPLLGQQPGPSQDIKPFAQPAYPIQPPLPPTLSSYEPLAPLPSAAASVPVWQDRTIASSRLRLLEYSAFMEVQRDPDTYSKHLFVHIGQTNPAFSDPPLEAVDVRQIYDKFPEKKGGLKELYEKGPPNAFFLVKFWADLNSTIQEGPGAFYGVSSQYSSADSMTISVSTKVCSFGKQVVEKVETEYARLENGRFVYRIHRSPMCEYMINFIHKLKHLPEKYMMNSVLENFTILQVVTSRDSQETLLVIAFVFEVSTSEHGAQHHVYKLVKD
Description: (§1) Thermal shift assay (TSA) is a biophysical method to evaluate stability of proteins with change in temperature. The assay measures thermal denaturation temperature in varying conditions such as different drug concentration. For this example, fluorogenic dye was used that bind to unfolded proteins. SYPRO Orange binds non-specifically to hydrophobic surfaces, and water strongly quenches its fluorescence. When the protein unfolds, the exposed hydrophobic surfaces bind the dye, resulting in an increase in fluorescence by excluding water. Detergent micelles also bind the dye and increase background noise dramatically. Binding of small molecules to proteins leads to a stabilization against to thermal denaturation with the degree of thermal stabilization proportional to the strength of binding.
(§2) The study described in this example investigated the change in melting temperature (ΔTm) of TEAD isoforms 1˜4 when treated with TEAD inhibitors. Compound 1-1-a known strong TEAD1 and weak TEAD2 inhibitor; as well as Compound 1-4-a pan-TEAD inhibitor were used as controls.
(§3) Tris-HCL was dissolved in 5 mL of Cell culture grade water and allowed to dissolve completely. The pH was adjusted to 8 using NaOH. Additional assay buffer components were added in the order listed above. The buffer was mixed slowly.
(§4) Assay buffer was prepared according to the procedures outlined above and dispensed into test wells. Spyro orange was added to a concentration of 5× in the assay buffer, followed by test compound stock solution which was added to a concentration of 10 μM or 30 μM in the assay buffer.
(§5) The melt cycle was performed in Bio-RAD PCR instrument from 20-95° C. with ramp rate of 1° C./min.

TEAD2 = TEAD2 (Homo sapiens, UniProt Q15562); assay: TEAD thermal shift assay (TSA); format: binding
TEAD2, sequence (Q15562 whole entry): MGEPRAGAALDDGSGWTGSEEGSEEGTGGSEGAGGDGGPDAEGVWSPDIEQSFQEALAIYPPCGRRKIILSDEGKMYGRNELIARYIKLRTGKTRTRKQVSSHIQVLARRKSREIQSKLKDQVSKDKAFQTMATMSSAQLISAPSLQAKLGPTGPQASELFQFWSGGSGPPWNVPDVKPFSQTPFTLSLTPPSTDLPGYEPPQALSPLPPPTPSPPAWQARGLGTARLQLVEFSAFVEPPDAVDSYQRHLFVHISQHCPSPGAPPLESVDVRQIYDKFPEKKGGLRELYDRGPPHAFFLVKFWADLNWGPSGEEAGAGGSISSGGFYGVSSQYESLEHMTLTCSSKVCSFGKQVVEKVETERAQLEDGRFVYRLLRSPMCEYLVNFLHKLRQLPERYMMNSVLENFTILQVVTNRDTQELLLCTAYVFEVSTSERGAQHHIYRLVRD
Description: as §1, §2, §3, §4, §5

TEAD1 = TEAD1 (Homo sapiens, UniProt P28347); assay: TEAD thermal shift assay (TSA); format: binding
TEAD1, sequence (P28347 whole entry): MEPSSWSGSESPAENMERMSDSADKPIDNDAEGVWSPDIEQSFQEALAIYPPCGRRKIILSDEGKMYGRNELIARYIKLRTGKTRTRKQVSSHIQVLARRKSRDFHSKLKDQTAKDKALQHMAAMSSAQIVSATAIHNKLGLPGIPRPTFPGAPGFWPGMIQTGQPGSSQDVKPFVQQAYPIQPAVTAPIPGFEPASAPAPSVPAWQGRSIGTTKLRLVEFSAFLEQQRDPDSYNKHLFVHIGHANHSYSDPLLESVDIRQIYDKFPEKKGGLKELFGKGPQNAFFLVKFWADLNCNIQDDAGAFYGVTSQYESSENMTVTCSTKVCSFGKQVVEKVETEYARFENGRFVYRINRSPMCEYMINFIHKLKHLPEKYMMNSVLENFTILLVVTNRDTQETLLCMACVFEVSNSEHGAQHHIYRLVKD
Description: as §1, §2, §3, §4, §5

TEAD4 = TEAD4 (Homo sapiens, UniProt Q15561); assay: TEAD thermal shift assay (TSA); format: binding
TEAD4, sequence (Q15561 whole entry): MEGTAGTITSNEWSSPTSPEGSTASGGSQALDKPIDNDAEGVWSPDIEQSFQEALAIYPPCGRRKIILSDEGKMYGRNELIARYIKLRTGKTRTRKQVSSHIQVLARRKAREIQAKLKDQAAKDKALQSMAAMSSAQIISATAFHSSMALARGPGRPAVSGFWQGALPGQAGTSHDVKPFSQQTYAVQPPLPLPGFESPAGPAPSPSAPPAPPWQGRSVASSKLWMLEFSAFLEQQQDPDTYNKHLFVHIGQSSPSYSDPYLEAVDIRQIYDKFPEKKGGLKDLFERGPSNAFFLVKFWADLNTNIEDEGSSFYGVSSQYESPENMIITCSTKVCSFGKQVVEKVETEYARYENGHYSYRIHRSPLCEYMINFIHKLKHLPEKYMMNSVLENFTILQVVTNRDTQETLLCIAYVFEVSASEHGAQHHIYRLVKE
Description: as §1, §2, §3, §4, §5

[1] = ratio of protein to compound 1:1
[2] = ratio of protein to compound 1:3

pIC50 (NCI-H226 cells; Homo sapiens, NCI-H226, 144 h) | pEC50 (NCI-H226 cells; Homo sapiens) | TEAD3 ΔTm (TEAD3; [1]) [°C] | TEAD3 ΔTm (TEAD3; [2]) [°C] | TEAD2 ΔTm (TEAD2; [1]) [°C] | TEAD2 ΔTm (TEAD2; [2]) [°C] | TEAD1 ΔTm (TEAD1; [1]) [°C] | TEAD1 ΔTm (TEAD1; [2]) [°C] | TEAD4 ΔTm (TEAD4; [1]) [°C] | TEAD4 ΔTm (TEAD4; [2]) [°C] | pIC50 (NCI-H226 cells) | SMILES
> 6.70 | > 6.70 | 2 | 4 | 2 | 3 | 12 | 12 | 2 | 3 |  | C[C@H](NC(=O)c1cnc2c(C3=CC[C@@H](C(F)(F)F)CC3)cccc2c1)c1ncco1 (single isomer, unassigned) [Compound 19, N-(1-(oxazol-2-yl)ethyl)-8-(4-(trifluoromethyl)cyclohex-1-en-1-yl)quinoline-3-carboxamide]
 |  | 2 | 4.5 | 1 | 3 | 10 | 13 | 1.5 | 3 | > 6.70 | C[C@H](NC(=O)c1cnc2c(C3=CC[C@@H](C(F)(F)F)CC3)cccc2c1)c1ncco1 (single isomer, unassigned) [Compound 20, N-(1-(oxazol-2-yl)ethyl)-8-(4-(trifluoromethyl)cyclohex-1-en-1-yl)quinoline-3-carboxamide]
> 6.70 |  | 2 | 3 | 1 | 1.5 | 10 | 12 | 2 | 4 |  | C[C@H](NC(=O)c1cnc2c(C3=CCC(C(F)(F)F)CC3)cccc2c1)c1ccccn1 (stereo partly drawn) [Compound 2, N—((S)-1-(pyridin-2-yl)ethyl)-8-(4-(trifluoromethyl)cyclohex-1-en-1-yl)quinoline-3-carboxamide]
> 6.70 | > 6.70 | 2 | 2 | 2 | 3 | 9 | 11 | 1.5 | 3 |  | C[C@H](CO)NC(=O)c1cnc2c(C3=CCC(C(F)(F)F)CC3)cccc2c1 (stereo partly drawn) [Compound 7, N—((R)-1-hydroxypropan-2-yl)-8-(4-(trifluoromethyl)cyclohex-1-en-1-yl)quinoline-3-carboxamide]
> 6.70 | > 6.70 | 3.5 | 3 | 3 | 3 | 11 | 11.5 | 1.5 | 2.5 |  | O=C(NCc1ncco1)c1cnc2c(C3=CCC(C(F)(F)F)CC3)cccc2c1 (stereo not shown) [Compound 11, N-(oxazol-2-ylmethyl)-8-(4-(trifluoromethyl)cyclohex-1-en-1-yl)quinoline-3-carboxamide]
 | > 6.70 | 2 | 3 | 2 | 2 | 9 | 11 | 3 | 3 |  | O=C(NCc1ccn[nH]1)c1cnc2c(C3=CCC(C(F)(F)F)CC3)cccc2c1 (stereo not shown) [Compound 47, N-((1H-pyrazol-5-yl)methyl)-8-(4-(trifluoromethyl)cyclohex-1-en-1-yl)quinoline-3-carboxamide]
 | > 6.70 | 1 | 2 | 3 | 3 | 9 | 11 | 2 | 3 |  | COC[C@H](CO)NC(=O)c1cnc2c(C3=CCC(C(F)(F)F)CC3)cccc2c1 (stereo partly drawn) [Compound 62, N—((S)-1-hydroxy-3-methoxypropan-2-yl)-8-(4-(trifluoromethyl)cyclohex-1-en-1-yl)quinoline-3-carboxamide]

More lines, now with the values behind:

SMILES | pIC50 (NCI-H226 cells; Homo sapiens, NCI-H226, 144 h) | pEC50 (NCI-H226 cells; Homo sapiens) | TEAD3 ΔTm (TEAD3; [1]) [°C] | TEAD3 ΔTm (TEAD3; [2]) [°C] | TEAD2 ΔTm (TEAD2; [1]) [°C] | TEAD2 ΔTm (TEAD2; [2]) [°C] | TEAD1 ΔTm (TEAD1; [1]) [°C] | TEAD1 ΔTm (TEAD1; [2]) [°C] | TEAD4 ΔTm (TEAD4; [1]) [°C] | TEAD4 ΔTm (TEAD4; [2]) [°C] | pIC50 (NCI-H226 cells)
FC(F)(F)c1ccc(CN2CCC(C3CC(Br)=NO3)CC2)cc1 (stereo not shown) [Compound 1-2, reference compound] |  | > 6.70 |  |  |  |  |  |  |  |  | 
C=CC(=O)Nc1ccc(C)c(Oc2ccc(Cl)cc2)c1 [Compound 1-3, reference compound] |  | > 6.70 |  |  |  |  |  |  |  |  | 
COc1cc(C2=CCC(C(F)(F)F)CC2)c2ncc(C(=O)N[C@H](C)c3ncco3)cc2c1 (stereo partly drawn) [Compound 109, 6-methoxy-N—((R)-1-(oxazol-2-yl)ethyl)-8-(4-(trifluoromethyl)cyclohex-1-en-1-yl)quinoline-3-carboxamide] |  | > 6.70 | 2 | 3 | 3 | 2 | 13 | 14 | 1 | 2 | 
COc1cc(C2=CCC(C(F)(F)F)CC2)c2ncc(C(=O)N[C@H](C)CO)cc2c1 (stereo partly drawn) [Compound 110, N—((R)-1-hydroxypropan-2-yl)-6-methoxy-8-(4-(trifluoromethyl)cyclohex-1-en-1-yl)quinoline-3-carboxamide] |  | > 6.70 | 2 | 3 | 2 | 3 | 14 | 16 | 2 | 3 | 
C[C@H](CO)NC(=O)c1cnc2c(C3=CCC4(CC3)CC(F)(F)C4)cccc2c1 [Compound 165, (R)-8-(2,2-difluorospiro[3.5]non-6-en-7-yl)-N-(1-hydroxypropan-2-yl)quinoline-3-carboxamide] |  | > 6.70 |  |  |  |  |  |  |  |  | 
C[C@@H](NC(=O)c1cnc2c(C3=CCC4(CC3)CC4)cccc2c1)c1ncco1 [Compound 166, (R)—N-(1-(oxazol-2-yl)ethyl)-8-(spiro[2.5]oct-5-en-6-yl)quinoline-3-carboxamide] |  | > 6.70 |  |  |  |  |  |  |  |  | 
